From ChEMBL document CHEMBL5233242, “Dihydrofolate reductase inhibitors for use as antimicrobial agents” (Eur J Med Chem, 2020)
Values after ≈ are worked out from the molar mass of the structure shown.

Columns and labels:
[1] = test system: Mycobacterium tuberculosis; test: Antibacterial activity against extensively drug-resistant Mycobacterium tuberculosis 5; type: functional
[2] = test system: Mycobacterium tuberculosis; test: Antibacterial activity against multi drug-resistant Mycobacterium tuberculosis 365; type: functional

Structure (SMILES)	MIC [1]	MIC [2]
CCc1nc(N)nc(N)c1C#C[C@H](C)c1cc(OC)cc(-c2ccc(C(=O)O)cc2)c1	0.6 µM (≈ 0.25 µg/mL)	< 0.072 µM
CCc1nc(N)nc(N)c1C#CCc1cc(OC)cc(-c2ccc(C(=O)O)cc2)c1	4.97 µM (≈ 2 µg/mL)	0.311 µM (≈ 0.125 µg/mL)
